# Results as given in patent US20220265629A1, “TREATMENT OF SYSTOLIC DYSFUNCTION AND HEART FAILURE WITH REDUCED EJECTION FRACTION WITH THE COMPOUND (R)-4-(1-((3-(DIFLUOROMETHYL)-1-METHYL-1H-PYRAZOL-4-YL)SULFONYL)-1-FLUOROETHYL)-N-(ISOXAZOL-3-YL)PIPERIDINE-1-CARBOXAMIDE” (MyoKardia, Inc., priority 2019, published 2022).
# System: healthy subjects
# Experiment: Single ascending oral dose study in healthy volunteers: transthoracic echocardiography (TTE) pharmacodynamics
# Assay type: in vivo, human
# Details: for DBP placebo-corrected change from Baseline (LS mean difference) / E/A ratio placebo-corrected change from Baseline (LS mean difference) / E/e′(lateral) placebo-corrected change from Baseline (LS mean difference) / HR placebo-corrected change from Baseline (LS mean difference) / IVCT placebo-corrected change from Baseline (LS mean difference) / IVRT placebo-corrected change from Baseline (LS mean difference) / LVEDD placebo-corrected change from Baseline (LS mean difference) / LVEDV placebo-corrected change from Baseline (LS mean difference) / LVEF placebo-corrected change from Baseline (LS mean difference) / LVESD placebo-corrected change from Baseline (LS mean difference) / LVESV placebo-corrected change from Baseline (LS mean difference) / LVFS placebo-corrected change from Baseline (LS mean difference) / LVGCS placebo-corrected change from Baseline (LS mean difference) / LVGLS placebo-corrected change from Baseline (LS mean difference) / MPI placebo-corrected change from Baseline (LS mean difference) / PEP placebo-corrected change from Baseline (LS mean difference) / Peak A placebo-corrected change from Baseline (LS mean difference) / Peak E placebo-corrected change from Baseline (LS mean difference) / SBP placebo-corrected change from Baseline (LS mean difference) / SET placebo-corrected change from Baseline (LS mean difference) / Stroke Volume placebo-corrected change from Baseline (LS mean difference): 6 hours post-dose
# Description: To assess pharmacodynamic effects, serial echocardiograms were performed. The sonographers used in the study completed Echo protocol training and submitted an example of a study for evaluation to the core laboratory for evaluation. The core TTE lab certified that the sonographer was able to perform the TTEs at a level satisfactory for obtaining the required protocol data.
# These criteria were chosen to prevent subjects from having prolongation of SET that might lead to myocardial ischemia. Dose escalation stopping criteria also included observation of a Baseline-corrected, group mean relative increase of >20% in any 2 sequential TTE assessments in at least 2 measures of LV contractility: LVOT-VTI, LVFS, LVEF, or LVSV in subjects receiving Compound I. Placebo-controlled evaluation may have been considered. For this comparison, subjects who received placebo may have been pooled across cohorts.
# SET as determined by TTE was assessed using summary statistics. Observations and change from Baseline were summarized by treatment at each time point and the maximum change from Baseline determined for each subject. In addition, categorical analyses were performed on the number of subjects with a change from Baseline>50 msec and the number of subjects with a change from Baseline>75 msec in 1 or any 2 sequential TTE assessments. The relationship to Compound I plasma concentration to SET was explored. An analysis of SET placebo-adjusted change from Baseline was also performed.
# As the Cmax occurred at between 4 and 6 hours in most of the subjects, the TTE obtained at 6 hours postclose was considered the best timepoint to explore the relationship between concentration and pharmacological effect. TTEs obtained at 1.5 and 3 hours after dosing were before the Cmax and at 9 hours were after the peak Cmax. Based on the preclinical data, it was considered unlikely that there would be a prolonged lag between the Cmax and peak pharmacological effect. As the exposure after the administration of the 350 mg and 525 mg doses were very similar, it was decided to not only present the results from these groups separately, but also to combine the data from these groups. By combining the data from the 2 groups, the number of subjects closed was increased from 6 to 12, thus increasing the power to observe a statistically significant change from Baseline in the TTE parameters of interest.
# An analysis of placebo-corrected change from Baseline at 6 hours postclose by Compound I plasma concentration bins is presented in Table 6 below.
# [1] = 350 mg and 525 mg combined, 6 hours postdose
# [2] = 350 mg and 525 mg combined, 12 hours postdose
# [3] = concentration exceeded 2000 ng/mL (median 2592 ng/mL)
# [4] = plasma concentrations >2000 ng/mL, 6 hours postdose
structure (smiles),measurement,setting,value
"Cn1cc(S(=O)(=O)[C@@](C)(F)C2CCN(C(=O)Nc3ccon3)CC2)c(C(F)F)n1 [Compound I, (R)-4-(1-((3-(difluoromethyl)-1-methyl-1H-pyrazol-4-yl)sulfonyl)-1-fluoroethyl)-N-(isoxazol-3-yl)piperidine-1-carboxamide]","LVEDD, highest observed change from Baseline","50 mg, 24 hours postdose",0.103 (0.217) cm
same,"LVEF, maximum mean (SD) increase","100 mg, 12 hours postdose",4.83 (2.65) %
same,"SET, observed mean (SD) increase","350 mg and 525 mg combined, 1.5 to 2 hours postdose",18.0 (19.5) msec
same,"LVEDV, mean (SD) decrease",[1],−9.98 (7.83) mL
same,"LVESV, mean (SD) decrease",[1],−6.82 (5.99) mL
same,"LVOT-VTI, mean (SD) increase",[1],2.28 (1.43) cm
same,"LVEDD, mean (SD) decrease",[2],−0.171 (0.177) cm
same,"LVSV, mean (SD) increase",[2],7.623 (7.842) mL
same,"SET, largest observed mean (SD) increase","350 mg, 1.5 to 2 hours postdose",19.2 (20.5) msec
same,"LVOT-VTI, maximum change from Baseline","350 mg, 6 hours postdose",2.54 (1.78) cm
same,"LVSV, maximum mean (SD) increase","350 mg, 12 hours postdose",10.848 (9.893) mL
same,"LVEDV, largest mean (SD) decrease","525 mg, 6 hours postdose",−12.5 (6.96) mL
same,"LVEF, maximum mean (SD) increase","525 mg, 6 hours postdose",4.65 (1.45) %
same,"LVESV, largest mean (SD) decrease","525 mg, 6 hours postdose",−9.21 (3.18) mL
same,"LVEDD, largest observed mean (SD) decrease","525 mg, 12 hours postdose",−0.213 (0.221) cm
same,"LVESD, largest observed mean (SD) decrease","525 mg, 12 hours postdose",−0.455 (0.357) cm
same,DBP placebo-corrected change from Baseline (LS mean difference),plasma 0-1000 ng/mL,2.277 mm Hg
same,E/A ratio placebo-corrected change from Baseline (LS mean difference),plasma 0-1000 ng/mL,0.150
same,E/e′(lateral) placebo-corrected change from Baseline (LS mean difference),plasma 0-1000 ng/mL,−0.235
same,HR placebo-corrected change from Baseline (LS mean difference),plasma 0-1000 ng/mL,−1.070 bpm
same,IVCT placebo-corrected change from Baseline (LS mean difference),plasma 0-1000 ng/mL,0.677 ms
same,IVRT placebo-corrected change from Baseline (LS mean difference),plasma 0-1000 ng/mL,1.526 ms
same,LVEDD placebo-corrected change from Baseline (LS mean difference),plasma 0-1000 ng/mL,−0.014 cm
same,LVEDV placebo-corrected change from Baseline (LS mean difference),plasma 0-1000 ng/mL,-2.210 mL
same,LVEF placebo-corrected change from Baseline (LS mean difference),plasma 0-1000 ng/mL,0.322%
same,LVESD placebo-corrected change from Baseline (LS mean difference),plasma 0-1000 ng/mL,0.025 cm
same,LVESV placebo-corrected change from Baseline (LS mean difference),plasma 0-1000 ng/mL,-1.204 mL
same,LVFS placebo-corrected change from Baseline (LS mean difference),plasma 0-1000 ng/mL,−0.560%
same,LVGCS placebo-corrected change from Baseline (LS mean difference),plasma 0-1000 ng/mL,−1.076%
same,LVGLS placebo-corrected change from Baseline (LS mean difference),plasma 0-1000 ng/mL,−0.467%
same,MPI placebo-corrected change from Baseline (LS mean difference),plasma 0-1000 ng/mL,−0.007
same,PEP placebo-corrected change from Baseline (LS mean difference),plasma 0-1000 ng/mL,-2.190 ms
same,Peak A placebo-corrected change from Baseline (LS mean difference),plasma 0-1000 ng/mL,-3.09 cm/s
same,Peak E placebo-corrected change from Baseline (LS mean difference),plasma 0-1000 ng/mL,-966000 ×10⁻⁶ cm/s
same,SBP placebo-corrected change from Baseline (LS mean difference),plasma 0-1000 ng/mL,−0.623 mm Hg
same,SET placebo-corrected change from Baseline (LS mean difference),plasma 0-1000 ng/mL,10.623 ms
same,Stroke Volume placebo-corrected change from Baseline (LS mean difference),plasma 0-1000 ng/mL,2.631 mL
same,DBP placebo-corrected change from Baseline (LS mean difference),plasma 1001-2000 ng/mL,2.937 mm Hg
same,E/A ratio placebo-corrected change from Baseline (LS mean difference),plasma 1001-2000 ng/mL,0.177
same,E/e′(lateral) placebo-corrected change from Baseline (LS mean difference),plasma 1001-2000 ng/mL,0.144
same,HR placebo-corrected change from Baseline (LS mean difference),plasma 1001-2000 ng/mL,0.336 bpm
same,IVCT placebo-corrected change from Baseline (LS mean difference),plasma 1001-2000 ng/mL,1.412 ms
same,IVRT placebo-corrected change from Baseline (LS mean difference),plasma 1001-2000 ng/mL,0.148 ms
same,LVEDD placebo-corrected change from Baseline (LS mean difference),plasma 1001-2000 ng/mL,−0.041 cm
same,LVEDV placebo-corrected change from Baseline (LS mean difference),plasma 1001-2000 ng/mL,-6.100 mL
same,LVEF placebo-corrected change from Baseline (LS mean difference),plasma 1001-2000 ng/mL,2.176%
same,LVESD placebo-corrected change from Baseline (LS mean difference),plasma 1001-2000 ng/mL,−0.159 cm
same,LVESV placebo-corrected change from Baseline (LS mean difference),plasma 1001-2000 ng/mL,-4.101 mL
same,LVFS placebo-corrected change from Baseline (LS mean difference),plasma 1001-2000 ng/mL,3.549%
same,LVGCS placebo-corrected change from Baseline (LS mean difference),plasma 1001-2000 ng/mL,−1.383%
same,LVGLS placebo-corrected change from Baseline (LS mean difference),plasma 1001-2000 ng/mL,−1.274%
same,MPI placebo-corrected change from Baseline (LS mean difference),plasma 1001-2000 ng/mL,−0.021
same,PEP placebo-corrected change from Baseline (LS mean difference),plasma 1001-2000 ng/mL,-5.487 ms
same,Peak A placebo-corrected change from Baseline (LS mean difference),plasma 1001-2000 ng/mL,-2.87 cm/s
same,Peak E placebo-corrected change from Baseline (LS mean difference),plasma 1001-2000 ng/mL,-1.43 cm/s
same,SBP placebo-corrected change from Baseline (LS mean difference),plasma 1001-2000 ng/mL,1.132 mm Hg
same,SET placebo-corrected change from Baseline (LS mean difference),plasma 1001-2000 ng/mL,23.049 ms
same,Stroke Volume placebo-corrected change from Baseline (LS mean difference),plasma 1001-2000 ng/mL,2.509 mL
same,DBP placebo-corrected change from Baseline (LS mean difference),plasma >2000 ng/mL,1.540 mm Hg
same,E/A ratio placebo-corrected change from Baseline (LS mean difference),plasma >2000 ng/mL,−0.047
same,E/e′(lateral) placebo-corrected change from Baseline (LS mean difference),plasma >2000 ng/mL,−0.063
same,HR placebo-corrected change from Baseline (LS mean difference),plasma >2000 ng/mL,2.871 bpm
same,IVCT placebo-corrected change from Baseline (LS mean difference),plasma >2000 ng/mL,6.115 ms
same,IVRT placebo-corrected change from Baseline (LS mean difference),plasma >2000 ng/mL,11.986 ms
same,LVEDD placebo-corrected change from Baseline (LS mean difference),plasma >2000 ng/mL,−0.115 cm
same,LVEDV placebo-corrected change from Baseline (LS mean difference),plasma >2000 ng/mL,-9.678 mL
same,LVEF placebo-corrected change from Baseline (LS mean difference),plasma >2000 ng/mL,3.219%
same,LVESD placebo-corrected change from Baseline (LS mean difference),plasma >2000 ng/mL,−0.306 cm
same,LVESV placebo-corrected change from Baseline (LS mean difference),plasma >2000 ng/mL,-6.031 mL
same,LVFS placebo-corrected change from Baseline (LS mean difference),plasma >2000 ng/mL,6.289%
same,LVGCS placebo-corrected change from Baseline (LS mean difference),plasma >2000 ng/mL,−2.854%
same,LVGLS placebo-corrected change from Baseline (LS mean difference),plasma >2000 ng/mL,−1.779%
same,MPI placebo-corrected change from Baseline (LS mean difference),plasma >2000 ng/mL,0.033
same,PEP placebo-corrected change from Baseline (LS mean difference),plasma >2000 ng/mL,-2.131 ms
same,Peak A placebo-corrected change from Baseline (LS mean difference),plasma >2000 ng/mL,657000 ×10⁻⁶ cm/s
same,Peak E placebo-corrected change from Baseline (LS mean difference),plasma >2000 ng/mL,-5.3 cm/s
same,SBP placebo-corrected change from Baseline (LS mean difference),plasma >2000 ng/mL,−1.572 mm Hg
same,SET placebo-corrected change from Baseline (LS mean difference),plasma >2000 ng/mL,25.645 ms
same,Stroke Volume placebo-corrected change from Baseline (LS mean difference),plasma >2000 ng/mL,8.197 mL
same,"LVEDD, mean decrease",[3],0.12 cm
same,"LVEDV, mean decrease",[3],9.68 mL
same,"LVEF, mean absolute increase",[3],3.2%
same,"LVESD, mean decrease",[3],0.31 cm
same,"LVESV, mean decrease",[3],6.03 mL
same,"LVFS, mean absolute increase",[3],6.3%
same,"LVGCS, mean absolute decrease",[3],2.85%
same,"LVGLS, mean absolute decrease",[3],1.78%
same,"LVSV, mean increase",[3],8.2%
same,"SET, mean increase",[3],25.7 ms
same,diastolic function/relaxation (E/A ratio and E/e′),plasma concentrations >2000 ng/mL,no significant effects
same,"SET, placebo-corrected change from Baseline (LS mean difference±SE)","plasma concentrations >2000 ng/mL (median 2425 ng/mL), 6 hours postdose",25.6 ± 7.71 ms
same,"IVRT (mitral inflow doppler), placebo-corrected change from Baseline (LS mean difference±SE)",[4],12.0 ± 3.92 ms
same,"LVEDV, placebo-corrected change from Baseline (LS mean difference±SE)",[4],-9.68 ± 2.95 mL
same,"LVEF, placebo-corrected change from Baseline (LS mean difference±SE)",[4],3.22±1.48%
same,"LVESD, placebo-corrected change from Baseline (LS mean difference±SE)",[4],−0.306±0.077 cm
same,"LVESV, placebo-corrected change from Baseline (LS mean difference±SE)",[4],-6.03 ± 1.87 mL
same,"LVFS, placebo-corrected change from Baseline (LS mean difference±SE)",[4],6.29±1.55%
same,"LVGCS, placebo-corrected change from Baseline (LS mean difference±SE)",[4],-2.85 ± 0.99%
same,"LVGLS, placebo-corrected change from Baseline (LS mean difference±SE)",[4],-1.78 ± 0.76%
same,"stroke volume, placebo-corrected change from Baseline (LS mean difference±SE)",[4],8.20 ± 3.99 mL
